Data from ChEMBL document CHEMBL5550154, “Novel biaryloxazolidinone derivatives with broad-spectrum antibacterial activity, favorable drug-like profiles and in vivo efficacy against linezolid-resistant Staphylococcusaureus” (Eur J Med Chem, 2024).
In brackets after ≈: the same amount, converted by molar mass.

Legend:
Staphylococcus aureus [1] = test: Antibacterial activity against Staphylococcus aureus ATCC29213 assessed as inhibition of bacterial growth incubated for 16 to 20 hrs by CLSI based broth liquid microdilution method; type: functional; details: time 16-20 hrs
Staphylococcus aureus [2] = test: Antibacterial activity against linezolid-resistant Staphylococcus aureus assessed as inhibition of bacterial growth incubated for 16 to 20 hrs by CLSI based broth liquid microdilution method; type: functional; details: time 16-20 hrs
Enterococcus faecalis = test: Antibacterial activity against linezolid-resistant Enterococcus faecalis assessed as inhibition of bacterial growth incubated for 16 to 20 hrs by CLSI based broth liquid microdilution method; type: functional; details: time 16-20 hrs
Staphylococcus aureus [3] = test: Antibacterial activity against methicillin-resistant Staphylococcus aureus assessed as inhibition of bacterial growth incubated for 16 to 20 hrs by CLSI based broth liquid microdilution method; type: functional; details: time 16-20 hrs
Staphylococcus aureus [4] = test: Antibacterial activity against methicillin-sensitive Staphylococcus aureus assessed as inhibition of bacterial growth incubated for 16 to 20 hrs by CLSI based broth liquid microdilution method; type: functional; details: time 16-20 hrs
[5] = Aqueous solubility of compound at pH 2 by LC-MS/MS analysis; type: physicochemical; details: buffer
[6] = Apparent volume of distribution in Sprague-Dawley rat at 1 mg/kg, iv measured upto 24 hrs by LC-MS analysis; type: ADME, organism-based; details: in vivo, read-out: Vz
[7] = Solubility of compound at pH 7.4; type: physicochemical; details: buffer
[8] = Elimination half life in Sprague-Dawley rat at 1 mg/kg, iv measured upto 24 hrs by LC-MS analysis; type: ADME, organism-based; details: in vivo, read-out: beta t1/2 (converted)
[9] = Efflux ratio of apparent permeability across […] side in human Caco-2 cells; type: ADME, cell-based
[10] = Aqueous solubility of compound at pH 7.4 by LC-MS/MS analysis; type: physicochemical; details: buffer
[11] = Bioavailability in Sprague-Dawley rat at 10 mg/kg, IG measured upto 24 hrs by LC-MS analysis; type: ADME, organism-based; details: in vivo, po
[12] = Solubility of compound at pH 2; type: physicochemical; details: buffer
[13] = AUC (0 to t) in Sprague-Dawley rat at 10 mg/kg, IG measured upto 24 hrs by LC-MS analysis; type: ADME, organism-based; details: in vivo, po
[14] = Clearance in Sprague-Dawley rat at 1 mg/kg, iv measured upto 24 hrs by LC-MS analysis; type: ADME, organism-based; details: in vivo
[15] = Tmax in Sprague-Dawley rat at 10 mg/kg, IG measured upto 24 hrs by LC-MS analysis; type: ADME, organism-based; details: in vivo, po
[16] = Cmax in Sprague-Dawley rat at 10 mg/kg, IG measured upto 24 hrs by LC-MS analysis; type: ADME, organism-based; details: in vivo, po
[17] = Apparent permeability across apical to basolateral side in human Caco-2 cells; type: ADME, cell-based
[18] = Elimination half life in Sprague-Dawley rat at 10 mg/kg, IG measured upto 24 hrs by LC-MS analysis; type: ADME, organism-based; details: in vivo, po, read-out: beta t1/2 (converted)
[19] = AUC (0 to t) in Sprague-Dawley rat at 1 mg/kg, iv measured upto 24 hrs by LC-MS analysis; type: ADME, organism-based; details: in vivo

Compound	MIC (Staphylococcus aureus [1])	MIC (Staphylococcus aureus [2])	MIC (Enterococcus faecalis)	MIC (Staphylococcus aureus [3])	MIC (Staphylococcus aureus [4])	also measured
NC(=S)N/N=C/c1ccc(-c2ccc(N3C[C@H](CO)OC3=O)cc2F)cn1	0.125 µg/mL (≈ 0.321 µM)	0.25 µg/mL (≈ 0.642 µM)	1 µg/mL (≈ 2.57 µM)	0.125 µg/mL (≈ 0.321 µM)	0.125 µg/mL (≈ 0.321 µM)	–
O=C1O[C@@H](CO)CN1c1ccc(-c2ccc(/C=N/Nc3ccncn3)nc2)c(F)c1	1 µg/mL (≈ 2.45 µM)	1 µg/mL (≈ 2.45 µM)	64 µg/mL (≈ 157 µM)	1 µg/mL (≈ 2.45 µM)	1 µg/mL (≈ 2.45 µM)	–
O=C1O[C@@H](CO)CN1c1ccc(-c2ccc(/C=N/Nc3ccc(Cl)nn3)nc2)c(F)c1	0.5 µg/mL (≈ 1.13 µM)	1 µg/mL (≈ 2.26 µM)	2 µg/mL (≈ 4.52 µM)	0.5 µg/mL (≈ 1.13 µM)	0.5 µg/mL (≈ 1.13 µM)	–
O=C1O[C@@H](CO)CN1c1ccc(-c2ccc(/C=N/Nc3ncccn3)nc2)c(F)c1	1 µg/mL (≈ 2.45 µM)	1 µg/mL (≈ 2.45 µM)	4 µg/mL (≈ 9.79 µM)	1 µg/mL (≈ 2.45 µM)	0.5 µg/mL (≈ 1.22 µM)	–
N=C(N)N/N=C/c1ccc(-c2ccc(N3C[C@H](CO)OC3=O)cc2F)cn1	1 µg/mL (≈ 2.69 µM)	1 µg/mL (≈ 2.69 µM)	2 µg/mL (≈ 5.37 µM)	1 µg/mL (≈ 2.69 µM)	0.5 µg/mL (≈ 1.34 µM)	–
NC[C@H]1CN(c2ccc(-c3ccc(/C=N/N4CCCCC4)nc3)c(F)c2)C(=O)O1	8 µg/mL (≈ 20.1 µM)	32 µg/mL (≈ 80.5 µM)	32 µg/mL (≈ 80.5 µM)	16 µg/mL (≈ 40.3 µM)	8 µg/mL (≈ 20.1 µM)	–
COC[C@H]1CN(c2ccc(-c3ccc(/C=N/N4CCCCC4)nc3)c(F)c2)C(=O)O1	> 16 µg/mL	–	> 16 µg/mL	–	> 16 µg/mL	–
CS(=O)(=O)NC[C@H]1CN(c2ccc(-c3ccc(/C=N/N4CCCCC4)nc3)c(F)c2)C(=O)O1	0.06 µg/mL (≈ 0.126 µM)	> 16 µg/mL	4 µg/mL (≈ 8.41 µM)	0.125 µg/mL (≈ 0.263 µM)	0.125 µg/mL (≈ 0.263 µM)	–
O=C1O[C@@H](CNS(=O)(=O)C2CC2)CN1c1ccc(-c2ccc(/C=N/N3CCCCC3)nc2)c(F)c1	0.25 µg/mL (≈ 0.498 µM)	> 16 µg/mL	> 16 µg/mL	0.25 µg/mL (≈ 0.498 µM)	0.25 µg/mL (≈ 0.498 µM)	–
O=C1O[C@@H](CO)CN1c1ccc(-c2ccc(/C=N/Nc3ccc(Cl)cn3)nc2)c(F)c1	0.5 µg/mL (≈ 1.13 µM)	0.5 µg/mL (≈ 1.13 µM)	8 µg/mL (≈ 18.1 µM)	0.5 µg/mL (≈ 1.13 µM)	0.5 µg/mL (≈ 1.13 µM)	–
Cc1cccc(N/N=C/c2ccc(-c3ccc(N4C[C@H](CO)OC4=O)cc3F)cn2)n1	0.5 µg/mL (≈ 1.19 µM)	0.5 µg/mL (≈ 1.19 µM)	1 µg/mL (≈ 2.37 µM)	0.5 µg/mL (≈ 1.19 µM)	0.25 µg/mL (≈ 0.593 µM)	–
CC(=O)NC[C@H]1CN(c2ccc(-c3ccc(/C=N/N4CCS(=O)(=O)CC4)nc3)c(F)c2)C(=O)O1	0.125 µg/mL (≈ 0.255 µM)	0.125 µg/mL (≈ 0.255 µM)	0.25 µg/mL (≈ 0.511 µM)	0.125 µg/mL (≈ 0.255 µM)	0.125 µg/mL (≈ 0.255 µM)	solubility [5]: 70.4 µM (≈ 34.5 µg/mL); Vd [6]: 0.58 L/kg; solubility [7]: 2.38 µM (≈ 1.17 µg/mL); half-life [8]: 44.4 min; Ratio [9]: 64; solubility [10]: 38 µM (≈ 18.6 µg/mL); bioavailability [11]: 3.6%; solubility [12]: 70.4 µM (≈ 34.5 µg/mL); AUC(0-t) at 24 h [13]: 469 ng·h/mL; clearance [14]: 12.9 mL/min/kg; Tmax [15]: 30 min; Cmax [16]: 140 ng/mL; Papp A→B [17]: 0.27 ×10⁻⁶ cm/s; half-life [18]: 154 min; AUC(0-t) at 24 h [19]: 1290 ng·h/mL
CS(=O)(=O)OC[C@H]1CN(c2ccc(-c3ccc(/C=N/N4CCCCC4)nc3)c(F)c2)C(=O)O1	0.015 µg/mL (≈ 0.0315 µM)	> 16 µg/mL	1 µg/mL (≈ 2.1 µM)	0.008 µg/mL (≈ 0.0168 µM)	0.008 µg/mL (≈ 0.0168 µM)	–
O=C1O[C@@H](CO)CN1c1ccc(-c2ccc(/C=N/N3CCSCC3)nc2)c(F)c1	2 µg/mL (≈ 4.8 µM)	2 µg/mL (≈ 4.8 µM)	8 µg/mL (≈ 19.2 µM)	1 µg/mL (≈ 2.4 µM)	1 µg/mL (≈ 2.4 µM)	–
CCS(=O)(=O)NC[C@H]1CN(c2ccc(-c3ccc(/C=N/N4CCCCC4)nc3)c(F)c2)C(=O)O1	1 µg/mL (≈ 2.04 µM)	> 16 µg/mL	8 µg/mL (≈ 16.3 µM)	1 µg/mL (≈ 2.04 µM)	1 µg/mL (≈ 2.04 µM)	–
Cc1cc(Br)cc(C(=O)N2CCN(/N=C/c3ccc(-c4ccc(N5C[C@H](CO)OC5=O)cc4F)cn3)CC2)c1	0.25 µg/mL (≈ 0.419 µM)	0.25 µg/mL (≈ 0.419 µM)	4 µg/mL (≈ 6.71 µM)	0.25 µg/mL (≈ 0.419 µM)	0.125 µg/mL (≈ 0.21 µM)	–
CC(C)(C)C(=O)NC[C@H]1CN(c2ccc(-c3ccc(/C=N/N4CCCCC4)nc3)c(F)c2)C(=O)O1	4 µg/mL (≈ 8.31 µM)	> 16 µg/mL	> 16 µg/mL	4 µg/mL (≈ 8.31 µM)	4 µg/mL (≈ 8.31 µM)	–
CC(C)S(=O)(=O)NC[C@H]1CN(c2ccc(-c3ccc(/C=N/N4CCCCC4)nc3)c(F)c2)C(=O)O1	4 µg/mL (≈ 7.94 µM)	> 64 µg/mL	> 64 µg/mL	4 µg/mL (≈ 7.94 µM)	2 µg/mL (≈ 3.97 µM)	–
CN1CCN(/N=C/c2ccc(-c3ccc(N4C[C@H](CO)OC4=O)cc3F)cn2)CC1	0.125 µg/mL (≈ 0.302 µM)	0.125 µg/mL (≈ 0.302 µM)	0.5 µg/mL (≈ 1.21 µM)	0.125 µg/mL (≈ 0.302 µM)	0.125 µg/mL (≈ 0.302 µM)	–
O=C1O[C@@H](CO)CN1c1ccc(-c2ccc(/C=N/NC3=NCCN3)nc2)c(F)c1	0.5 µg/mL (≈ 1.26 µM)	0.5 µg/mL (≈ 1.26 µM)	2 µg/mL (≈ 5.02 µM)	0.5 µg/mL (≈ 1.26 µM)	0.25 µg/mL (≈ 0.628 µM)	–
O=C1O[C@@H](CF)CN1c1ccc(-c2ccc(/C=N/N3CCCCC3)nc2)c(F)c1	0.25 µg/mL (≈ 0.624 µM)	0.5 µg/mL (≈ 1.25 µM)	> 16 µg/mL	0.5 µg/mL (≈ 1.25 µM)	0.25 µg/mL (≈ 0.624 µM)	–
O=C1O[C@@H](CO)CN1c1ccc(-c2ccc(/C=N/Nc3ccc(Cl)cc3)nc2)c(F)c1	0.5 µg/mL (≈ 1.13 µM)	0.5 µg/mL (≈ 1.13 µM)	32 µg/mL (≈ 72.6 µM)	0.5 µg/mL (≈ 1.13 µM)	0.25 µg/mL (≈ 0.567 µM)	–
CS(=O)(=O)N1CCN(/N=C/c2ccc(-c3ccc(N4C[C@H](CO)OC4=O)cc3F)cn2)CC1	0.25 µg/mL (≈ 0.524 µM)	0.125 µg/mL (≈ 0.262 µM)	1 µg/mL (≈ 2.09 µM)	0.25 µg/mL (≈ 0.524 µM)	0.125 µg/mL (≈ 0.262 µM)	–
